Data published in ChEMBL document CHEMBL3808342, “Discovery and optimization of a novel series of highly CNS penetrant M4 PAMs based on a 5,6-dimethyl-4-(piperidin-1-yl)thieno[2,3-d]pyrimidine core” (Bioorg Med Chem Lett, 2016).
Calls of active or inactive are those of the source. No cut-off for these calls is given here.

Assays:
[1] = Fraction unbound in human plasma; format: ADME, cell-free
[2] = Fraction unbound in rat plasma; format: ADME, cell-free
Cytochrome P450 3A4 = Cytochrome P450 3A4 (Homo sapiens, UniProt P08684); experiment: Inhibition of CYP3A4 (unknown origin); format: ADME
Chain of Cytochrome P450 3A4 (P08684 whole entry): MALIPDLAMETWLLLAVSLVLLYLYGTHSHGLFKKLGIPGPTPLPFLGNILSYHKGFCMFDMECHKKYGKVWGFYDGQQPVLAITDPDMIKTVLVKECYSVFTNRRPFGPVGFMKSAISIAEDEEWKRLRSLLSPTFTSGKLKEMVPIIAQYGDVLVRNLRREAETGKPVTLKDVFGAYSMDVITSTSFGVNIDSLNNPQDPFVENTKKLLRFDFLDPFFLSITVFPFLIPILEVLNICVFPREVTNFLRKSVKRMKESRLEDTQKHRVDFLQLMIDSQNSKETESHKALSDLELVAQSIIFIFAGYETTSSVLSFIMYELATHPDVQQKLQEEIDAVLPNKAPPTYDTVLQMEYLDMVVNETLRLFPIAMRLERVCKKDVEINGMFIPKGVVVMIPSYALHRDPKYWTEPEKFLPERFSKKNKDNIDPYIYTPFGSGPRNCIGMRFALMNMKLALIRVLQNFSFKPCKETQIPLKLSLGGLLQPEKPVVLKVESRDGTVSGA

Cytochrome P450 1A2 = target: T1, Cytochrome P450 1A2 (Homo sapiens, UniProt P05177); experiment: Inhibition of CYP1A2 (unknown origin); format: ADME
T1 sequence (P05177 whole entry): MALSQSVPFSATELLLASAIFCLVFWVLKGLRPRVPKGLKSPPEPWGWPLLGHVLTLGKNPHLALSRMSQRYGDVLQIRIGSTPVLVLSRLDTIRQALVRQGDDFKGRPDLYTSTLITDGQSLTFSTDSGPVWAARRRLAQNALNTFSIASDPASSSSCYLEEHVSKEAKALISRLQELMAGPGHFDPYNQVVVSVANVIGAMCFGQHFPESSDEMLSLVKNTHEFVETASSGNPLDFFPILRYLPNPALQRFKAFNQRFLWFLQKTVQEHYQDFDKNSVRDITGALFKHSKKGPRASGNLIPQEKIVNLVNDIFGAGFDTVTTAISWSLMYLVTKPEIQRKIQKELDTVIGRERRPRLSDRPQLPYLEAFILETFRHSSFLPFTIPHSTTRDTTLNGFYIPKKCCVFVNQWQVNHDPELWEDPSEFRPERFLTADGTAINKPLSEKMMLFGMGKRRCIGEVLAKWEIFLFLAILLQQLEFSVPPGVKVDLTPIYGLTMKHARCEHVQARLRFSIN

Cytochrome P450 2D6 = Cytochrome P450 2D6 (Homo sapiens, UniProt P10635); experiment: Inhibition of CYP2D6 (unknown origin); format: ADME
Chain of Cytochrome P450 2D6 (P10635 whole entry): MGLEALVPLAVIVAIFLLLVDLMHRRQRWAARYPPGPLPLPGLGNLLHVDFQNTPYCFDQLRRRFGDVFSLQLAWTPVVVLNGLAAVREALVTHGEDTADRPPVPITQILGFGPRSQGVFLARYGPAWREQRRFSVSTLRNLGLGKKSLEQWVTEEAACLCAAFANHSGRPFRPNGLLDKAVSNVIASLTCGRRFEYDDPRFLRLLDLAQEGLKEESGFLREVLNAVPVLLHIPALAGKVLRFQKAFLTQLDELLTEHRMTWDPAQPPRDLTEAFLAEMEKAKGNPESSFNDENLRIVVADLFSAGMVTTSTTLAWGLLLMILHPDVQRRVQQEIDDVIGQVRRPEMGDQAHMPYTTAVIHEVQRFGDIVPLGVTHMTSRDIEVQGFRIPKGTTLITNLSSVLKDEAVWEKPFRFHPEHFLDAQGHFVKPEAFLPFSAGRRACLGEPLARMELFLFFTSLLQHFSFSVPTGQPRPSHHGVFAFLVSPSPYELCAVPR

Cytochrome P450 2C9 = Cytochrome P450 2C9 (Homo sapiens, UniProt P11712); experiment: Inhibition of CYP2C9 (unknown origin); format: ADME
Chain of Cytochrome P450 2C9 (P11712 whole entry): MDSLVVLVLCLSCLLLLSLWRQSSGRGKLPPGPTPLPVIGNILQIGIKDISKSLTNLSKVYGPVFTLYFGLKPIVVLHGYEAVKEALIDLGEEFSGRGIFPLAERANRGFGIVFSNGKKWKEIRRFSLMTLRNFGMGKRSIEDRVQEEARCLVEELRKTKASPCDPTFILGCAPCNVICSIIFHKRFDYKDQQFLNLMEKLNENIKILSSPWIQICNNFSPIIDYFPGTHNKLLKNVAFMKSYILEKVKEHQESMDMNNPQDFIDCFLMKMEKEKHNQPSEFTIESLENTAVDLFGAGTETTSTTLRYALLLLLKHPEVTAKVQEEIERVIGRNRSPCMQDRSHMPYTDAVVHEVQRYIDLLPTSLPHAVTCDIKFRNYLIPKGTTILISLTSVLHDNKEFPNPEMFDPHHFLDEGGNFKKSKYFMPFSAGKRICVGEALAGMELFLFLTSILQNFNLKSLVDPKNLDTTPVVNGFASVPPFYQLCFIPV

[3] = target: T2, Muscarinic acetylcholine receptor M5 (Homo sapiens) (UniProt P08912); experiment: Positive allosteric modulation of human M5 receptor expressed in CHOK1 cells by calcium mobilization assay; format: functional, cell-based; conditions: CHO-K1
T2 sequence (whole entry): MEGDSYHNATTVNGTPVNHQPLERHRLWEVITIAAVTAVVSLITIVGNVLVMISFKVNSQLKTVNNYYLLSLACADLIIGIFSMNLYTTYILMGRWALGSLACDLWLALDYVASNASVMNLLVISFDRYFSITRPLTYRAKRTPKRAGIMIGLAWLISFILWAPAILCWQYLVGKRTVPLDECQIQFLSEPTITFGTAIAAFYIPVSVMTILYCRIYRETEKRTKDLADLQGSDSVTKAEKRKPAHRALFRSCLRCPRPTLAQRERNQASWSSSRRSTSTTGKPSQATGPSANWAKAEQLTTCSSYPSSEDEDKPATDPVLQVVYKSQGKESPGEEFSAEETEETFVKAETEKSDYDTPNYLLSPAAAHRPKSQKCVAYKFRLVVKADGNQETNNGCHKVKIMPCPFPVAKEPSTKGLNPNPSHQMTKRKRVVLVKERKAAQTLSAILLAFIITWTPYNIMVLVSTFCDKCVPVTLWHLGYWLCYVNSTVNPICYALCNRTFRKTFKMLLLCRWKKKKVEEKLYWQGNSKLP

[4] = target: T3, Muscarinic acetylcholine receptor M4 (Homo sapiens) (UniProt P08173); experiment: Positive allosteric modulation of human M4 receptor expressed in CHO cells coexpressing Gqi5 by calcium mobilization assay relative to acetylcholine; format: functional, cell-based
T3 sequence (whole entry): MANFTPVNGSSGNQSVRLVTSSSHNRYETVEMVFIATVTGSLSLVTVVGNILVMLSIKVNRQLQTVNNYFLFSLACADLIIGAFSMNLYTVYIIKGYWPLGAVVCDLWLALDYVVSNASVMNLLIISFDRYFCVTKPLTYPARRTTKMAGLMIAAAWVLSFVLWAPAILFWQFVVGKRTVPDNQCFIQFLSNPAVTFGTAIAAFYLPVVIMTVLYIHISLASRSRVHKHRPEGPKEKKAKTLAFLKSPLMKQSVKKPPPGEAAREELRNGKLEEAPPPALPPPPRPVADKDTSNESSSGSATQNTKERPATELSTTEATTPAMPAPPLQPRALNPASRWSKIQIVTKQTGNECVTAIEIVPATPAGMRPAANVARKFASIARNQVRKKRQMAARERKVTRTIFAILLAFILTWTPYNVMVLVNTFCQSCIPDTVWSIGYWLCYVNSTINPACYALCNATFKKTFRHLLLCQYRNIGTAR

[5] = target: T4, Muscarinic acetylcholine receptor M4 (Homo sapiens, UniProt P08173); experiment: Positive allosteric modulation of human M4 receptor expressed in CHO cells coexpressing Gqi5 by calcium mobilization assay; format: functional, cell-based
T4 sequence (P08173 whole entry): T3 sequence (whole entry)

[6] = target: T5, Muscarinic acetylcholine receptor M4 (Rattus norvegicus) (UniProt P08485); experiment: Positive allosteric modulation of rat M4 receptor expressed in CHO cells coexpressing Gqi5 by calcium mobilization assay relative to acetylcholine; format: functional, cell-based
T5 sequence (whole entry): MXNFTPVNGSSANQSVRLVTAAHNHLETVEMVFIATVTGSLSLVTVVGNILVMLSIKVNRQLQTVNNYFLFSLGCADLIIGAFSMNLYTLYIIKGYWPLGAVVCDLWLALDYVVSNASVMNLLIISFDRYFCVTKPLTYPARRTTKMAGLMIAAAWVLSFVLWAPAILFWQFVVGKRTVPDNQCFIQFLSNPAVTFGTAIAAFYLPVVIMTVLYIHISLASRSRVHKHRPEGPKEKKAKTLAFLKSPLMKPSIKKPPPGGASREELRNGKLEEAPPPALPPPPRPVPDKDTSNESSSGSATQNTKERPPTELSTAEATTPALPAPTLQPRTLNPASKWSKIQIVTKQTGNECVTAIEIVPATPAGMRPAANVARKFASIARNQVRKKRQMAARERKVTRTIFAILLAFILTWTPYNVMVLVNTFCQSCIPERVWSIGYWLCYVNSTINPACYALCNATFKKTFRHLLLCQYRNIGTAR

[7] = target: T6, Muscarinic acetylcholine receptor M4 (Rattus norvegicus, UniProt P08485); experiment: Positive allosteric modulation of rat M4 receptor expressed in CHO cells coexpressing Gqi5 by calcium mobilization assay; format: functional, cell-based
T6 sequence (P08485 whole entry): T5 sequence (whole entry)

With `Cc1sc2ncnc(N3CCC(C(=O)Nc4ccc(S(N)(=O)=O)cc4)CC3)c2c1C` the fraction unbound [1] was 0.002, the fraction unbound [2] was 0.01 and the IC50 (Cytochrome P450 3A4) was over 20000 nM. It also gave an IC50 (Cytochrome P450 1A2) of over 20000 nM, an IC50 (Cytochrome P450 2D6) of 3400 nM and an IC50 (Cytochrome P450 2C9) of 5800 nM. The Activity [3] was “inactive”, the %max [4] was 76% and the EC50 ([5]; read-out: EC50) was 410 nM. It also gave an EC50 ([5]; read-out: pEC50 (converted)) of 1200 nM, a %max [6] of 71% and an EC50 [7] of 160 nM.
